Experimental data reported in paper PMC11830721 (Frontiers in Pharmacology, 2025).

Columns and labels:
FLT3-ITD [1] = biological target: T1, FLT3-ITD (Homo sapiens, UniProt P36888, ITD); assay: ADP-Glo kinase-inhibition assay; format: biochemical; settings: ADP-Glo; ATP 100 μM; FLT3-ITD 10 ng/μL
T1 sequence (P36888 27-993): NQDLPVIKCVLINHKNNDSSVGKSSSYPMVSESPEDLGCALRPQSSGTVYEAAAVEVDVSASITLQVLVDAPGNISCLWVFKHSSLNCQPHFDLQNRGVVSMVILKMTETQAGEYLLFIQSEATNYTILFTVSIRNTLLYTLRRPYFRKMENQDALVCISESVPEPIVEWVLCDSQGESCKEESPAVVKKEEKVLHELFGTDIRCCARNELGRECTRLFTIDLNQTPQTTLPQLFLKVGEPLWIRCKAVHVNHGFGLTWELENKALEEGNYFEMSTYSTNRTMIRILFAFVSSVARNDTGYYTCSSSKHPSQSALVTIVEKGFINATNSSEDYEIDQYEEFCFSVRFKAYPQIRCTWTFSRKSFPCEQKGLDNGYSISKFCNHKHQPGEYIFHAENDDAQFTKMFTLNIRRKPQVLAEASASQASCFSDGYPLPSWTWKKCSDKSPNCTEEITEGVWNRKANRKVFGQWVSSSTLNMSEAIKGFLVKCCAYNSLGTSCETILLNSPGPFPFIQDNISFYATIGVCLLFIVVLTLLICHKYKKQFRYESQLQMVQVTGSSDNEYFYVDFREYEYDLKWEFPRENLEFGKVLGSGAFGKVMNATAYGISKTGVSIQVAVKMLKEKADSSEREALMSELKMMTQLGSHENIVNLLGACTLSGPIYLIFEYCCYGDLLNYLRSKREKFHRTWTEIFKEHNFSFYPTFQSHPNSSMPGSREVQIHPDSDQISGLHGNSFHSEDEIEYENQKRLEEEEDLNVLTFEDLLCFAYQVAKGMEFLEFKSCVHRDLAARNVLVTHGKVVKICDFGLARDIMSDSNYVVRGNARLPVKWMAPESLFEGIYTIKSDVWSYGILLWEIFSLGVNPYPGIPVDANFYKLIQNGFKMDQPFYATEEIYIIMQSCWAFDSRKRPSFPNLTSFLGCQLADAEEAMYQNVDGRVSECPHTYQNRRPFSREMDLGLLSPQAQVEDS
Description: Subsequently, the kinase detection reagent was added and incubated for an additional 15 min. Finally, the mixture was incubated for 1 h, and relative luminescence units (RLU) were measured.
Moreover, we extended the kinase selectivity profiling of FLIN-4 to evaluate its inhibitory activity against 60 non-target kinases.

FLT3-ITD [2] = biological target: T1, FLT3-ITD; assay: Microscale thermophoresis (MST) binding affinity; settings: 50 mM Tris, 230 mM NaCl, pH 7.0, labeled protein 50 nM
Description: The protein was labeled with a fluorescence tag utilizing a Lys Labeling Kit (NanoTemper), with a final concentration of 50 nM being achieved. Adhering to the manufacturer’s guidelines, the compounds were titrated from an initial concentration of 12.5 μM with a 1:1 dilution ratio. Next, each sample was centrifuged at 15,000 rpm for 5 min, followed by loading into standard glass capillaries for MST analysis.

MV4-11 cells = assay: MTT anti-proliferation assay, MV4-11; format: cell-based; settings: Homo sapiens, 72-h treatment
Description: In addition, the normal hematopoietic cell line was COLO 829BL from ATCC. The cells were maintained in RPMI-1640 medium supplemented with 10% FBS, and 1% penicillin and streptomycin. The cells were cultured in an incubator at 37°C with 5% CO2. […] The high-performance liquid chromatography (HPLC) spectra data for each compound are provided in the (Supplementary Figures S1–S6).
The effects of the test compounds on MV4-11, NB4, and COLO 829BL cell lines were quantitatively evaluated according to the methods previously reported ([Zhou et al., 2022]).

SMILES | IC50 (FLT3-ITD [1]) [nM] | Kd (FLT3-ITD [2]) [nM] | IC50 (MV4-11 cells) [nM]
CCc1nc(C(N)=O)c(Nc2ccc(N3CCC(NC4CC4)CC3)c(OC)c2)nc1NC1CCOC(C(O)CO)C1 (stereo not drawn) [FLIN-1] | 10.2 ± 0.81 | 8.74 ± 0.52 | 12.2 ± 0.94
CCc1nc(C(N)=O)c(Nc2ccc(N3CCC(NC4CCCC4)CC3)c(OC)c2)nc1NC1CCOC(C(O)CO)C1 (stereo not drawn) [FLIN-2] | 4.98 ± 0.35 | 3.62 ± 0.41 | 5.54 ± 0.41
CCc1nc(C(N)=O)c(Nc2ccc(N3CCC(NC4CCCCC4)CC3)c(OC)c2)nc1NC1CCOC(C(O)CO)C1 (stereo not drawn) [FLIN-3] | 2.85 ± 0.22 | 2.19 ± 0.33 | 3.03 ± 0.27
CCCNC1CCN(c2ccc(Nc3nc(NC4CCOC(C(O)CO)C4)c(CC)nc3C(N)=O)cc2OC)CC1 (stereo not drawn) [FLIN-5] | 14.5 ± 0.98 | 12.5 ± 1.05 | 17.7 ± 1.03
CCc1nc(C(N)=O)c(Nc2ccc(N3CCC(NC(CC)CC)CC3)c(OC)c2)nc1NC1CCOC(C(O)CO)C1 (stereo not drawn) [FLIN-6] | 6.39 ± 0.47 | 5.26 ± 0.42 | 8.28 ± 0.54
